The IC50 is the midpoint of a concentration-inhibition curve. Usually Papp stands for a coefficient for how fast a substance crosses the barrier. Usually clearance stands for the rate of elimination divided by the concentration. Higher therefore signals efficient removal. Usually MRT stands for the average time that molecules of a dose stay in the body. For orientation: AUC means concentration integrated over time. Low readings indicate less exposure, high ones more exposure. In general, Cmax refers to the highest concentration seen after dosing. Broadly, the solubility is the dissolved amount per volume that the medium holds. A high value points to much dissolved substance.

The results in this text go back to ChEMBL document CHEMBL5576073, “Design and synthesis of novel fluorene derivatives as inhibitors of pyruvate dehydrogenase kinase” (Bioorg Med Chem Lett, 2024).

≈ marks a conversion by molar mass, not a printed value. Calls of active or inactive are those of the source. The rule behind the calls is not given here.

Series [1] has as its target [Pyruvate dehydrogenase (acetyl-transferring)] kinase isozyme 2, mitochondrial (Homo sapiens, UniProt Q15119). The series is described as follows: Inhibition of human recombinant PDHK2 assessed as residual PDH activity in presence of ATP using sodium pyruvate/Coenzyme A/thiamine pyrophosphate as substrates incubated for 90 mins by UV-transparent microplate analysis.
Series [2] is described as follows: Metabolic stability in human liver s9 fraction measured at 60 mins. Type of series: ADME, subcellular. The settings on record: read-out: Stability.
Series [3] is described as follows: Apparent permeability of compound in human Caco-2 cells. It counts as ADME, cell-based. In general terms: Caco-2 cells form a polarised layer with tight junctions and transporters.
The target in series [4] is [Pyruvate dehydrogenase (acetyl-transferring)] kinase isozyme 4, mitochondrial (Homo sapiens, UniProt Q16654). The series is described as follows: Inhibition of PDHK4 (unknown origin).
Series [5] can be described thus: Total body clearance in Sprague-Dawley rat at 1 mg/kg, iv measured for 25 hrs by LC-MS/MS analysis. It counts as ADME, organism-based. The settings on record: in vivo.
The nature of series [6]: Volume of distribution at steady state in Sprague-Dawley rat at 1 mg/kg, iv measured for 25 hrs by LC-MS/MS analysis. As to conditions: in vivo, read-out: Vdss. Type of series: ADME, organism-based.
The nature of series [7]: MRT in Sprague-Dawley rat at 1 mg/kg, iv measured for 25 hrs by LC-MS/MS analysis. It counts as ADME, organism-based. The settings on record: in vivo.
Series [8] can be described thus: AUC in Sprague-Dawley rat at 1 mg/kg, iv measured for 25 hrs by LC-MS/MS analysis. Type of series: ADME, organism-based. The settings on record: in vivo.
Series [9] in a line: Cmax in Sprague-Dawley rat at 10 mg/kg, po measured for 25 hrs by LC-MS/MS analysis. Type of series: ADME, organism-based. As to conditions: in vivo.
The nature of series [10]: AUC in Sprague-Dawley rat at 10 mg/kg, po measured for 25 hrs by LC-MS/MS analysis. Type of series: ADME, organism-based. As to conditions: in vivo.
Series [11] is described as follows: Oral bioavailability in Sprague-Dawley rat at 10 mg/kg measured for 25 hrs by LC-MS/MS analysis. It counts as ADME, organism-based. As to conditions: in vivo.
Series [12] is filed under the species Rattus norvegicus. The series is described as follows: Antidiabetic activity against Sprague-Dawley rat assessed as PDH activity in liver measured at 6 hrs. Type of series: functional, organism-based. The settings on record: dose 0.1-10 mg/kg, route po.
In series [13] the test system is Rattus norvegicus. The series is described as follows: Antidiabetic activity against Zucker fatty rats assessed as decrease in glucose level in plasma at 10 mg/kg administered for 28 days. Type of series: functional, organism-based. As to conditions: time 28.0 day.
Series [14] can be described thus: Drug concentration in Sprague-Dawley rat at 10 mg/kg, po measured at 8 hrs by LC-MS/MS analysis. It counts as ADME, organism-based. The settings on record: in vivo, read-out: Drug uptake.
Series [15] in a line: Drug concentration in Sprague-Dawley rat at 10 mg/kg, po measured at 25 hrs by LC-MS/MS analysis. It counts as ADME, organism-based. As to conditions: in vivo, read-out: Drug uptake.
A short description of series [16]: Aqueous solubility of compound in PBS at pH 7.2. It counts as physicochemical.

[Pyruvate dehydrogenase (acetyl-transferring)] kinase isozyme 4, mitochondrial, sequence (Q16654 whole entry): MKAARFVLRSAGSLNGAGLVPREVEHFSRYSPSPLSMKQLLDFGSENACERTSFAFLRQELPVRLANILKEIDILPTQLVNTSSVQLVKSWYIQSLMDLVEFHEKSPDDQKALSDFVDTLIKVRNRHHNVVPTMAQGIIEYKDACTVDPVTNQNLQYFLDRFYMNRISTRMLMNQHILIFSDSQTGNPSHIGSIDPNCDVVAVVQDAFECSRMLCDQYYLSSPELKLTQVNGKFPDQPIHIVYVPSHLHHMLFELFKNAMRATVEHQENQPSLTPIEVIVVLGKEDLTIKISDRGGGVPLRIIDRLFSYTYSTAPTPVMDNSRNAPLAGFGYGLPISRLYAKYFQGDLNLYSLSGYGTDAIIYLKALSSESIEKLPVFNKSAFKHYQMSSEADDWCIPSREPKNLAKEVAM

Regarding `Cn1cc(-c2cc(OCCCC(=O)O)cc3c2-c2ccccc2C3(O)C(F)(F)F)cn1` (stereo not drawn), in series [1], the IC50 was found to be 20 nM. Besides, the remaining at 1 h in [2] is 91%. For the same compound, in [3], the Papp worked out at 28.4 ×10⁻⁶ cm/s.

`Cc1cc(-c2cnn(CCO)c2)c2c(c1)C(O)(C(F)(F)F)c1ccccc1-2` (stereo not drawn): the IC50 in series [1] is 17 nM; in series [4], greater than 1000 nM. The remaining at 1 h in series [2] is 83%. Further, in series [3], the Papp worked out at 54.3 ×10⁻⁶ cm/s. The compound also had a clearance in series [5] of 11.7 mL/min/kg. Further, the Vd in [6] was determined as 2.6 L/kg. In series [7], this compound displayed an MRT of 3.9 h. Moreover, the figures for the AUC at 25 h in series [8] and in series [10] were 4.1 µM·h and 57 µM·h, respectively. The concentration in [9] peaked (Cmax) at 4.4 µM. Also, in [11], the bioavailability is 140%. Besides, the Activity result in [12] was “Dose-Dependent Effect”. For the same compound, in [13], the outcome was Active. In addition, the concentration at 8 h in [14] was determined as 3.1 µM. Besides, the concentration at 25 h in series [15] worked out at 0.2 µM.

On to `OCCn1cc(-c2cc(F)cc3c2-c2ccccc2C3(O)C(F)(F)F)cn1` (stereo not drawn), for which, in series [1], the half-inhibitory concentration (IC50) came to 20 nM. For the same compound, the remaining at 1 h in [2] was 97%. The Papp in [3] was found to be 59.8 ×10⁻⁶ cm/s.

On to `OC1(C(F)(F)F)c2ccccc2-c2ccccc21`, for which the IC50 in [1] stood at 5900 nM. The compound also yielded a solubility in [16] of 87 µM (≈ 21.8 µg/mL). Also, the Papp in [3] came to 56.8 ×10⁻⁶ cm/s.

Turning to `Nc1nc(SCC(=O)c2ccccc2)nc2sc3c(c12)CCN(Cc1ccccc1)C3`, in [1], the IC50 was 1900 nM. The same compound displayed a solubility in series [16] of no more than 0.3 µM. Moreover, the remaining at 1 h in [2] was determined as 6%.

For `COC(=O)c1ccc2c(c1)C(O)(C(F)(F)F)c1ccccc1-2` (racemic), the IC50 in series [1] stood at 600 nM. The same compound had a solubility in series [16] of 45 µM (≈ 13.9 µg/mL). For the same compound, in series [3], the Papp was determined as 34.5 ×10⁻⁶ cm/s.

`COC(=O)c1cccc2c1-c1ccccc1C2(O)C(F)(F)F` (racemic): the IC50 in [1] was 900 nM. Also, the solubility in [16] was determined as 83 µM (≈ 25.6 µg/mL). Further, the Papp in series [3] is 17.4 ×10⁻⁶ cm/s.

As for `O=C(c1ccc2c(c1)C(O)(C(F)(F)F)c1ccccc1-2)N1CCC1` (racemic), the IC50 in series [1] turned out to be 170 nM. In [16], the solubility is 93 µM (≈ 31 µg/mL). The remaining at 1 h in series [2] came to 49%. For the same compound, in [3], the Papp is 47.5 ×10⁻⁶ cm/s.

For the compound `OC1(C(F)(F)F)c2ccccc2-c2c(-c3cnco3)cccc21` (racemic), the solubility in series [16] was 17 µM (≈ 5.39 µg/mL). Besides, the remaining at 1 h in series [2] was found to be 61%. In addition, the Papp in series [3] is 51.1 ×10⁻⁶ cm/s.

The compound `OC1(C(F)(F)F)c2ccccc2-c2ccc(-c3ccccc3)cc21` (racemic) returned a solubility in [16] of no more than 0.4 µM. For the same compound, the Papp in series [3] turned out to be 9.8 ×10⁻⁶ cm/s.

Compound `OC1(C(F)(F)F)c2ccccc2-c2c(-c3cccnc3)cccc21` (racemic) had a solubility in [16] of 0.38 µM (≈ 0.124 µg/mL). Also, the remaining at 1 h in series [2] was 80%. In addition, in series [3], the Papp worked out at 18 ×10⁻⁶ cm/s.

`O=C1CCCN1c1ccc2c(c1)C(O)(C(F)(F)F)c1ccccc1-2` (racemic): the solubility in series [16] was 83 µM (≈ 27.7 µg/mL). In addition, the remaining at 1 h in series [2] came out at 29%. For the same compound, the Papp in series [3] came to 39.5 ×10⁻⁶ cm/s.

As for `O=C(O)CCCOc1ccc2c(c1)C(O)(C(F)(F)F)c1ccccc1-2` (racemic), the solubility in series [16] is no less than 95 µM. Besides, the remaining at 1 h in series [2] was 92%. The Papp in series [3] came out at 61.5 ×10⁻⁶ cm/s.

In series [16], `Cn1cc(-c2cccc3c2-c2ccccc2C3(O)C(F)(F)F)cn1` (racemic) gave a solubility of 6.9 µM (≈ 2.28 µg/mL). For the same compound, the remaining at 1 h in [2] amounted to 62%. Besides, the Papp in series [3] was found to be 63.1 ×10⁻⁶ cm/s.

Take `OCCCCOc1ccc2c(c1)C(O)(C(F)(F)F)c1ccccc1-2` (racemic): in series [16], the concentration in solution (solubility) was 85 µM (≈ 28.8 µg/mL). For the same compound, the Papp in series [3] turned out to be 48.3 ×10⁻⁶ cm/s.

As to `OC1(C(F)(F)F)c2ccccc2-c2c(-c3cncnc3)cccc21` (racemic), the solubility in [16] was 4.6 µM (≈ 1.51 µg/mL). In addition, in [2], the remaining at 1 h stood at 96%. For the same compound, the Papp in [3] came to 56.2 ×10⁻⁶ cm/s.

`OCCn1cc(-c2cccc3c2-c2ccccc2C3(O)C(F)(F)F)cn1` (racemic) registered a solubility in series [16] of 92 µM (≈ 33.2 µg/mL). For the same compound, in series [2], the remaining at 1 h amounted to 94%. For the same compound, the Papp in series [3] turned out to be 68 ×10⁻⁶ cm/s.

`O=C(c1cc(-c2cnn(CCO)c2)c2c(c1)C(O)(C(F)(F)F)c1ccccc1-2)N1CCC1` (racemic): in [2], the remaining at 1 h stood at 94%. The Papp in series [3] turned out to be 6.5 ×10⁻⁶ cm/s.

Compound `CNC(=O)Cn1cc(-c2cccc3c2-c2ccccc2C3(O)C(F)(F)F)cn1` (racemic) came in with a solubility in series [16] of 94 µM (≈ 36.4 µg/mL). The remaining at 1 h in series [2] stood at 93%. In addition, the Papp in [3] was determined as 51.2 ×10⁻⁶ cm/s.

Compound `CC(C)(C)Cn1cc(-c2cccc3c2-c2ccccc2C3(O)C(F)(F)F)cn1` (racemic) came in with a solubility in series [16] of no more than 0.4 µM. Moreover, the remaining at 1 h in series [2] turned out to be 84%. In addition, the Papp in series [3] was 16.2 ×10⁻⁶ cm/s.

For the compound `CC(C)C1(O)c2ccccc2-c2ncccc21` (racemic), in series [1], the IC50 is 12000 nM. Besides, the concentration in solution in [16] (solubility) was 94 µM (≈ 21.2 µg/mL). The remaining at 1 h in series [2] amounted to 97%.
